Measured values from patent publication US5459131A, “Renin inhibitors” (American Cyanamid Company, priority 1991, dated 1995).

molecular target: T1, human kidney renin (Homo sapiens, UniProt P00797); test: Radioimmunoassay screen for renin inhibitors (angiotensin I generation, then RIA quantitation); assay type: biochemical; details: purified human plasma angiotensinogen substrate, maleate buffer pH 6.0, 1 hour at 37° C.; read-out: Renin Inhibition IC50 Molar Concentration
T1 construct: Human renin is prepared from human kidney; from tissue; host or cells: human kidney
T1 sequence (P00797 67-406): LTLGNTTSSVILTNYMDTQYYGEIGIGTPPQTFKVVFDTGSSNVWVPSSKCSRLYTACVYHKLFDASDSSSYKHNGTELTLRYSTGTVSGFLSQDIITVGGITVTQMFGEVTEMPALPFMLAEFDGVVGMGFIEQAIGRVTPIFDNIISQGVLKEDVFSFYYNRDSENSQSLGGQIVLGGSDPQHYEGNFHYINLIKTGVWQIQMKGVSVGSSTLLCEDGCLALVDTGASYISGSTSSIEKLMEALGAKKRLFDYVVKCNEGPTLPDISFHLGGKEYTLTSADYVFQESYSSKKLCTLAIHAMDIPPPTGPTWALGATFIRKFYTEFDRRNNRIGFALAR
Procedure: Radioimmunoassay Screen For Renin Inhibitors
The in vitro method for the screening of anti-renin compounds involves, first, angiotensin I generation, and second, the quantitation of the angiotensin I produced by radioimmunoassay.
The incubation medium consisted of 20 μl of purified human plasma angiotensinogen; (1) 10 μl of human kidney renin; (2) 5 μl of phenylmethylsulfonyl fluoride; 10 μl of disodium EDTA (10 mM); 10 μl of antirenin compound (5×10^-3 M, 5×10^-4 M, 5×10^-5 M) in dimethylformamide, or ethanol and a suitable amount of maleate buffer (77 mM, pH 6.0) to make a final volume of 500 μl . The reaction mixture is incubated for one hour at 37° C. and the enzymatic reaction is stopped by placing the tube in ice-cold water. The angiotensin I generated during the incubation is measured by a radioimmunoassay plasma renin activity kit (Clinical Assays, Inc.).
Radioimmunoassay Procedure
The incubation medium consisted of either 100 μl aliquots of the above reaction mixture or a standard amount of angiotensin I; 1000 μl of phosphate buffer (100 mM, pH 7.6) and 100 μl of (^125 I) angiotensin in a gamma-coat tube. After three hours of incubation at room temperature, the tubes are decanted, and the radioactivity of each tube is determined in a gamma counter. Duplicate determinations are performed for each incubation. The results are expressed in ng of angiotensin I generated per ml of generation medium per hour of incubation (ng/AI/ml/hr).
The results of this test on representative compounds of this invention appear in Table I, expressed as an IC50.
(1) The human plasma angiotensinogen derived from the blood of a person receiving oral contraceptive pills is purified by chromatography on a pepstatinaminohexyl-agarose column.
(2) Human renin is prepared from human kidney.

Row | Substance | IC50 [nM]
1 | [S-(R*,R*)]-4,7-anhydro-1-cyclohexyl-1,2,5,6-tetradeoxy-2-[[4-methyl-2-[[4-[3-[(methylamino)sulfonyl]phenyl]-1,4-dioxo-2-(phenylmethyl)buyhl]amino]-1-oxopentyl]amino]-L-arabino-Heptitol | 71
2 | [S-(R*,S*)]-1-cyclohexyl-2-[[2-[[1,4-dioxo-4-phenyl-2-(phenylmethyl)butyl]amino]-4-methyl-1-oxopentyl]amino]-4,7-epithio-1,2,4,5,6,7-hexadeoxy-L-arabino-Heptitol, (R and S)-S-oxide | 8.3
3 | [S-(R*,S*)]-4,7-anhydro-1-cyclohexyl-1,2,5,6-tetradeoxy-2-[[2-[[1,4-dioxo-2-(phenylmethyl)-4-(2-thienyl)butyl]amino]-4-methyl-1-oxo-pentyl]amino]-L-arabino-Heptitol | 0.08
4 | [S-(R*,S*)]-4,7-anhydro-1-cyclohexyl-1,2,5,6-tetradeoxy-2-[[4-methyl-2-[[4-[3-[(methylamino)sulfonyl]phenyl]-1,4-dioxo-2-(phenylmethyl)butyl]amino]-1-oxopentyl]amino]-L-arabino-Heptitol | 2.4
5 | [S-(R*,S*)]-4,7-anhydro-1-cyclohexyl-1,2,5,6-tetradoxy-2-[[2-[[1,4-dioxo-4-phenyl-2-(phenylmethyl)butyl]amino]-4-methyl-1-oxopentyl]amino]-D-xylo-Heptitol | 470

Results, then the substance that gave them:

Row | IC50 [nM] | Substance
6 | 42 | [S-(R*,R*)]4,7-anhydro-2-[[2-[[4-(2-benzofuranyl)-1,4-dioxo-2-(phenylmethyl)butyl]amino]-3-(1H-imidazol-4-yl)-1-oxopropyl]amino]-1-cyclohexyl-1,2,5,6-tetradeoxy-L-arabino-Heptitol
7 | 1.5 | [S-(R*,S*)[-4,7-anhydro-2-[[2-[[4-(2-benzofuranyl)-1,4-dioxo-2-(phenylmethyl)butyl]amino]-3-(1H-imidazol-4-yl)-1-oxopropyl]amino]-1-cyclohexyl-1,2,5,6-tetradeosy-L-arabino-Heptitol
8 | 12 | [S-(R*,S*)]-1-cyclohexyl-1,2,4,5,6,7-hexadeoxy-2-[[2-[[1,4-dioxo-4-phenyl-2-(phenylmethyl)butyl]amino]-4-methyl-1-oxopentyl]amino]-4,7-epithio-L-arabino-Heptitol, [R (or S)]-S-oxide
